Laboratory results published in ChEMBL document CHEMBL1201862, “PubChem BioAssay data set” (2004).
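All cell lines were grown in 96-well plates and treated with compound for 48 hours. GI50 marks 50% less growth.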 Activity calls are given as the source filed them. Rule as the data show it: active = GI50 up to about 1.1 µM and inactive = higher.

Columns and labels:
Test in all cases: NCI anticancer screen, dose series, 48 h
786-0 = tested on: 786-0
A549 = tested on: A549
ACHN = tested on: ACHN
BT-549 = tested on: BT-549
HL-60 = tested on: HL-60
HOP-62 = tested on: HOP-62
Hs-578T = tested on: Hs-578T
KM12 = tested on: KM12
MDA-N = tested on: MDA-N
MOLT-4 = tested on: MOLT-4
NCI-H226 = tested on: NCI-H226
NCI-H23 = tested on: NCI-H23
NCI-H460 = tested on: NCI-H460
NCI-H522 = tested on: NCI-H522
NCI/ADR-RES = tested on: NCI/ADR-RES
OVCAR-4 = tested on: OVCAR-4
PC-3 = tested on: PC-3
RPMI-8226 = tested on: RPMI-8226
SF-539 = tested on: SF-539
UO-31 = tested on: UO-31

SMILES	GI50 (786-0)	GI50 (A549)	GI50 (ACHN)	GI50 (BT-549)	GI50 (HL-60)	GI50 (HOP-62)	GI50 (Hs-578T)	GI50 (KM12)	GI50 (MDA-N)	GI50 (MOLT-4)	GI50 (NCI-H226)	GI50 (NCI-H23)	GI50 (NCI-H460)	GI50 (NCI-H522)	GI50 (NCI/ADR-RES)	GI50 (OVCAR-4)	GI50 (PC-3)	GI50 (RPMI-8226)	GI50 (SF-539)	GI50 (UO-31)
c1ccc(-c2sc(-c3ccccc3)c3c2C2CCC3C2)cc1	45.9 µM (inactive)	28.6 µM (inactive)	36.1 µM (inactive)	40.7 µM (inactive)	37.5 µM (inactive)	38.2 µM (inactive)	20 µM (inactive)	30.6 µM (inactive)	43 µM (inactive)	52.4 µM (inactive)	32.5 µM (inactive)	33.5 µM (inactive)	28.9 µM (inactive)	23.1 µM (inactive)	29.8 µM (inactive)	> 100 µM (inactive)	25.5 µM (inactive)	16.1 µM (inactive)	26 µM (inactive)	16 µM (inactive)
Cn1cnc([N+](=O)[O-])c1SCC(=O)O	> 100 µM (inactive)	> 100 µM (inactive)	> 100 µM (inactive)	> 100 µM (inactive)	> 100 µM (inactive)	> 100 µM (inactive)	> 100 µM (inactive)	> 100 µM (inactive)	> 100 µM (inactive)	–	> 100 µM (inactive)	> 100 µM (inactive)	> 100 µM (inactive)	> 100 µM (inactive)	> 100 µM (inactive)	> 100 µM (inactive)	> 100 µM (inactive)	> 100 µM (inactive)	–	> 100 µM (inactive)
CC(C)/C(Cl)=N/OC(=O)Nc1ccc(Cl)c(Cl)c1	1.96 µM (inactive)	21.4 µM (inactive)	1.99 µM (inactive)	4.84 µM (inactive)	1.76 µM (inactive)	18.2 µM (inactive)	23.7 µM (inactive)	17.5 µM (inactive)	3.59 µM (inactive)	2.49 µM (inactive)	18.1 µM (inactive)	15.3 µM (inactive)	17 µM (inactive)	1.58 µM (inactive)	16.7 µM (inactive)	9.31 µM (inactive)	16.6 µM (inactive)	2.36 µM (inactive)	13.6 µM (inactive)	15.3 µM (inactive)
Cc1cn([C@@H]2O[C@H](CO[Si](C)(C)C(C)(C)C)[C@]3(O[C@H]3C(=O)NO)[C@H]2O[Si](C)(C)C(C)(C)C)c(=O)[nH]c1=O	1.54 µM (inactive)	1.82 µM (inactive)	1.7 µM (inactive)	1.66 µM (inactive)	1.61 µM (inactive)	1.76 µM (inactive)	1.92 µM (inactive)	1.79 µM (inactive)	1.58 µM (inactive)	1.73 µM (inactive)	1.94 µM (inactive)	1.91 µM (inactive)	1.69 µM (inactive)	1.52 µM (inactive)	5.7 µM (inactive)	1.75 µM (inactive)	2.26 µM (inactive)	1.18 µM (inactive)	1.5 µM (inactive)	1.74 µM (inactive)
O=C(c1ccccc1)c1ccc2[nH]c(-c3c(Cl)c(Cl)c(Cl)c(Cl)c3C(=O)N/N=C/c3ccc(Cl)cc3)nc2c1	31.2 µM (inactive)	33 µM (inactive)	19.9 µM (inactive)	33.7 µM (inactive)	4.06 µM (inactive)	31.7 µM (inactive)	57.9 µM (inactive)	48.4 µM (inactive)	29.8 µM (inactive)	18.3 µM (inactive)	39.8 µM (inactive)	30.1 µM (inactive)	–	19.5 µM (inactive)	47.8 µM (inactive)	30.3 µM (inactive)	37 µM (inactive)	19.3 µM (inactive)	64.9 µM (inactive)	42.6 µM (inactive)
COC(=O)c1cc2cc3c(c(O)c2c(=O)o1)O[C@@]1(Oc2c(O)c4c(c(O)c2[C@H]1OC1CC(OC)C(O)C(C)O1)C(=O)C=C(OC)C4=O)[C@H](O)C3 (stereo partly specified)	0.991 µM (active)	1.05 µM (active)	0.855 µM (active)	1.3 µM (inactive)	0.719 µM (active)	1.14 µM (inactive)	1.17 µM (inactive)	0.904 µM (active)	1.22 µM (inactive)	0.748 µM (active)	1.32 µM (inactive)	0.94 µM (active)	0.685 µM (active)	2.09 µM (inactive)	4.62 µM (inactive)	0.604 µM (active)	1.36 µM (inactive)	0.547 µM (active)	0.908 µM (active)	1.37 µM (inactive)
CC1(C)/C(=N\NC(N)=O)C2CCC1C2 (stereo unspecified)	> 100 µM (inactive)	> 100 µM (inactive)	> 100 µM (inactive)	> 100 µM (inactive)	> 100 µM (inactive)	> 100 µM (inactive)	> 100 µM (inactive)	> 100 µM (inactive)	> 100 µM (inactive)	> 100 µM (inactive)	> 100 µM (inactive)	> 100 µM (inactive)	> 100 µM (inactive)	> 100 µM (inactive)	> 100 µM (inactive)	> 100 µM (inactive)	> 100 µM (inactive)	> 100 µM (inactive)	–	> 100 µM (inactive)
